{"source": "paper PMC3847553", "about": "“Kinetic properties of “dual” orexin receptor antagonists at OX1R and OX2R orexin receptors” (Frontiers in Neuroscience, 2013)", "key": {"OX1R": {"test_system": "OX1R", "assay": "FLIPR calcium assay, OX1R, species not given", "format": "cell-based", "settings": "species not stated", "method": "(§1) Determination of orexin A-stimulated calcium accumulation was performed over 2 days using FLIPR® (Fluorescent imaging plate reader from Molecular Devices-FLIPR384). Cells expressing either human, rat or mouse OX1R or OX2R were seeded at 8,000 cells/well in black 384 well clear bottom plates and incubated overnight at 37°C. The following day, medium was discarded and cells loaded with 50 μ l of 1 mM Fluo-4 AM (Invitrogen F14202) in dimethyl sulfoxide in working buffer (Hanks' balanced salt solution, 10 mM HEPES) and incubated for 60 min at 37°C. The loading buffer was removed and cells were washed with 100 μ l working buffer containing […], 0.1% BSA, and 2.5 mM Probenecid (pH 7.4) to remove the excess Fluo-4 AM. Working buffer was added and plates were incubated 10–15 min at room temperature. The assay plate was then transferred to the Molecular Devices-FLIPR384. The baseline calcium signal was recorded for 10 s, then the antagonist of interest was injected (10 μl at 3 times the final concentration) and the calcium signal recorded every second for 1 min, then every 2 s 40 times. Plates were then incubated at room temperature for 30 min, 1, 2, or 4 h."}, "OX2R": {"test_system": "OX2R", "assay": "FLIPR calcium assay, OX2R, species not given", "format": "cell-based", "settings": "species not stated", "method": "as §1"}, "REM sleep": {"test_system": "REM sleep", "design": "method as in Bettica et al., 2012b, 2012c", "settings": "10, 30, or 60 mg; healthy volunteers and insomnia patients; ref Bettica et al., 2012b, 2012c; cited from earlier work"}}, "data": [{"smiles": "COc1ccnc(N2CCC3(CCCN(Cc4c[nH]c5ccccc45)C3=O)CC2)n1", "note": "[IPSU, 2-((1H-Indol-3-yl)methyl)-9-(4-methoxypyrimidin-2-yl)-2,9-diazaspiro[5.5]undecan-1-one]", "values": [{"measurement": "effect of incubation time on potency in calcium assay", "setting": "OX1R", "value": "constant potency values irrespective of the incubation time"}, {"measurement": "effect of incubation time on potency in calcium assay", "setting": "OX2R", "value": "constant potency values irrespective of the incubation time"}]}, {"smiles": "Cc1nc(C(=O)N2CCCC[C@H]2CNC(=O)c2cccc3occc23)c(-c2ccc(F)cc2)s1", "note": "[SB-649868]", "values": [{"measurement": "REM duration", "setting": "REM sleep", "value": "increases REM duration"}, {"measurement": "latency to REM", "setting": "REM sleep", "value": "decreases latency to REM"}]}]}
